From ChEMBL document CHEMBL1212753, “Inducible APOBEC3G-Vif double stable cell line as a high-throughput screening platform to identify antiviral compounds” (Antimicrob Agents Chemother, 2010)
pEC50: −log10 of the molar value.

Key:
[1] = Inhibition of HIV Vif induced human cytidine-deaminase degradation in double transgenic HEK293 cells constitutively expressing enhanced yellow fluorescent protein expressor (EYFP-A3G) fusion and Tet-Off controllable Vif protein after 24 hrs by fluorimetric assay; type: cell-based, Human immunodeficiency virus
[2] = Inhibition of HIV Vif by replicating virus inhibition assay; set-up: species or system Human immunodeficiency virus

Structure (SMILES): COc1ccccc1NC(=O)c1ccccc1Sc1ccc([N+](=O)[O-])cc1
- pEC50 [1]: 5.24
- pEC50 [2]: 5.52
